From ChEMBL document CHEMBL3044603, “In search of new herbicidal inhibitors of the non-mevalonate pathway” (Pest Manag Sci, 2013) come the findings set out here.

The target of assay [1] is T1, 2-C-methyl-D-erythritol 4-phosphate cytidylyltransferase, chloroplastic (Arabidopsis thaliana, UniProt P69834).
T1 sequence (P69834 whole entry): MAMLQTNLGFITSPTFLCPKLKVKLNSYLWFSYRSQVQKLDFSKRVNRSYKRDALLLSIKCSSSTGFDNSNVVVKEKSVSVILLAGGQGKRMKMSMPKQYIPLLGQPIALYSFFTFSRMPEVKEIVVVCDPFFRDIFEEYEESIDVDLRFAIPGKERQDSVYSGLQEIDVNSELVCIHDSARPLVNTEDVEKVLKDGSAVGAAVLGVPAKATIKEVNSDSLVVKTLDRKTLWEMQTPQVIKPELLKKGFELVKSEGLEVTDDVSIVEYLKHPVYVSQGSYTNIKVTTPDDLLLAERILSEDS
The experiment in a line: Inhibition of Arabidopsis thaliana IspD.

The subject of assay [2] is Lemna minor. The experiment in a line: Herbicidal activity against Lemna minor (common duckweed) assessed as decrease in chlorophyll fluorescence at 56 mg/l measured for 4 days by picture analysis relative to control. Format: functional, organism-based.
Assay [3] has as its system Lemna minor. Description: Herbicidal activity against Lemna minor (common duckweed) assessed as growth inhibition at 56 mg/l measured for 6 days by picture analysis relative to control. The class given is functional, organism-based.
Assay [4] addresses T2, 1-deoxy-D-xylulose-5-phosphate synthase, chloroplastic (Arabidopsis thaliana, UniProt Q38854).
T2 sequence (Q38854 whole entry): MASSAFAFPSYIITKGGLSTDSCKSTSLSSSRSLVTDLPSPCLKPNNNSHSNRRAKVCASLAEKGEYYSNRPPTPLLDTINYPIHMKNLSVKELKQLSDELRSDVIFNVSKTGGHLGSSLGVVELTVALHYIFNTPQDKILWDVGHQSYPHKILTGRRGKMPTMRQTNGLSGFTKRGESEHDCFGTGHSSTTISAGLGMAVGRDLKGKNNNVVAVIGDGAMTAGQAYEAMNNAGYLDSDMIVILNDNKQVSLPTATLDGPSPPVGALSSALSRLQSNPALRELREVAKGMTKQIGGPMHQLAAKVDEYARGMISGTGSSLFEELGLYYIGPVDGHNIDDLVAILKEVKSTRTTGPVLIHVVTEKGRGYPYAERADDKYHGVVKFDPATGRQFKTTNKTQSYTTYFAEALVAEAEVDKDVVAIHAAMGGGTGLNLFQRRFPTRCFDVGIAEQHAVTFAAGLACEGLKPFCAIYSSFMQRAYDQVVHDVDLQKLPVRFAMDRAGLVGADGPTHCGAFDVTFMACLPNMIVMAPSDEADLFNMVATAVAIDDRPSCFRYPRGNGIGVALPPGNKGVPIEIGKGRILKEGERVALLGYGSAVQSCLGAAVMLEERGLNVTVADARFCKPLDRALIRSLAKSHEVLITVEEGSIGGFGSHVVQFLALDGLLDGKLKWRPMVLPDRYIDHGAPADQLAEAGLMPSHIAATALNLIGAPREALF
Description: Inhibition of Arabidopsis thaliana N-terminal GST-tagged DXS expressed in Escherichia coli BL21 GOLD (DE) using glyceraldehydephosphate and pyruvate as substrate after 90 min by spectrophotometric analysis.

The target of assay [5] is T3, 4-diphosphocytidyl-2-C-methyl-D-erythritol kinase, chloroplastic/chromoplastic (Solanum lycopersicum, UniProt P93841).
T3 sequence (P93841 whole entry): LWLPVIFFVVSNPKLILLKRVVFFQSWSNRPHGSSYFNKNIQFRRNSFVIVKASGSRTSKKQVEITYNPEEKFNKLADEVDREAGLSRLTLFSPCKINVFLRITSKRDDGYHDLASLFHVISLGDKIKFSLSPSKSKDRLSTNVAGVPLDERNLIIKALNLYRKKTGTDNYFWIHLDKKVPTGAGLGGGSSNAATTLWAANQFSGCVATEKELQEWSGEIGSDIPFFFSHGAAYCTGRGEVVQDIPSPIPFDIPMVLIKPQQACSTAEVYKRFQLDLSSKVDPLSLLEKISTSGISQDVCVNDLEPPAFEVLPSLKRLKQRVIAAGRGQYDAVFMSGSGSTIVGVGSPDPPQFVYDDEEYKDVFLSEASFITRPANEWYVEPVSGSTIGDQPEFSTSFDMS
Description: Inhibition of Solanum lycopersicum (tomato) IspE.

For assay [6], the target named is T4, 1-deoxy-D-xylulose 5-phosphate reductoisomerase, chloroplastic (Arabidopsis thaliana, UniProt Q9XFS9).
T4 sequence (Q9XFS9 whole entry): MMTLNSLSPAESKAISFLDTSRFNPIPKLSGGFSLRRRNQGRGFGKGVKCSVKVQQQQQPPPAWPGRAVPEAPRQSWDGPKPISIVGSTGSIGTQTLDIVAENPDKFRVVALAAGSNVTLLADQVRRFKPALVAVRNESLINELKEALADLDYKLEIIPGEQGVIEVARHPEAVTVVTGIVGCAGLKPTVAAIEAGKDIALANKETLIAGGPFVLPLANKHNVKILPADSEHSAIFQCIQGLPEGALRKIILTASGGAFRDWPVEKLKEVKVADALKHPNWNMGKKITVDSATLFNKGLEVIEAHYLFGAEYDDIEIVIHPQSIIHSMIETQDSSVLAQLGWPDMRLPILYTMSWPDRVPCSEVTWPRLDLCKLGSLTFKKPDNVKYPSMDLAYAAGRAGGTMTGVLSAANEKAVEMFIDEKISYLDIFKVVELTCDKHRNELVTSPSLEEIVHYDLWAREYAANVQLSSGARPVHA
The experiment in a line: Inhibition of Arabidopsis thaliana IspC expressed in Escherichia coli after 40 min by spectrophotometric analysis.

Assay [7] deals with T5, 4-diphosphocytidyl-2-C-methyl-D-erythritol kinase (Escherichia coli (strain K12), UniProt P62615).
T5 sequence (P62615 whole entry): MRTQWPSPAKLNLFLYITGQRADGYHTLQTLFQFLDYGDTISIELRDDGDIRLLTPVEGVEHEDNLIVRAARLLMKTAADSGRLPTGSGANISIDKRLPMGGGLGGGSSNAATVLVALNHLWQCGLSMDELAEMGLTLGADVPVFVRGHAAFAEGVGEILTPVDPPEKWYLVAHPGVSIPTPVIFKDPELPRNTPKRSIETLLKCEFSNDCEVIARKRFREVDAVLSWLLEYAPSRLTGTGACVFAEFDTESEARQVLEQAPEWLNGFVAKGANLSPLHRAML
The experiment in a line: Inhibition of Escherichia coli IspE by spectrophotometric analysis.

The target in assay [8] is T6, 2-C-methyl-D-erythritol 2,4-cyclodiphosphate synthase, chloroplastic (Arabidopsis thaliana, UniProt Q9CAK8).
T6 sequence (Q9CAK8 whole entry): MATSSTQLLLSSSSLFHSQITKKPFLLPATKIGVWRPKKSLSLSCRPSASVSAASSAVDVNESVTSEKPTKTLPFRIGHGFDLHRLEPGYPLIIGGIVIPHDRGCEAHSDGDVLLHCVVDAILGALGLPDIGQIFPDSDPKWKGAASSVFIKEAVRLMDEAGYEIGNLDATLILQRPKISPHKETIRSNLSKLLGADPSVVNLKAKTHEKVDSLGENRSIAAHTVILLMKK
The experiment in a line: Inhibition of Arabidopsis thaliana IspF expressed in Escherichia coli XL1-Blue after 30 min by spectrophotometric analysis.

Active and inactive are the calls of the source. The rule behind the calls is not given here.

In assay [1], `COc1ccc2nc(NC(=O)COc3ccc(-c4ccccc4)cc3)sc2c1` displayed an IC50 of 6.3 µM. Also, in the assay on Lemna minor [2], the outcome was inactive. For the same compound, the “growth inhibition (GI)” value with Lemna minor [3] was “inactive”.
On to `COc1ccc2nc(NC(=O)c3cc(-c4ccccc4O)n[nH]3)sc2c1`, for which, in assay [1], the IC50 stood at 1.8 µM. In addition, the outcome in the assay on Lemna minor [2] was inactive. Further, the “growth inhibition (GI)” value with Lemna minor [3] was “inactive”.
The compound `N#Cc1cnn2c(O)c(Cc3ccccc3)c(Cl)nc12` yielded an IC50 in assay [1] of 0.035 µM.
As to `COc1ccc(/C=N/Nc2nc3ccccc3[nH]2)cc1OCc1ccccc1`, in the assay with Lemna minor [2], the outcome was inactive. The “growth inhibition (GI)” value in the assay with Lemna minor [3] is “inactive”. The compound also yielded an IC50 in assay [4] of 49 µM.
In assay [5], `NC1=N/C(=N\NC(=O)c2cc(Cl)ccn2)c2ccc3ccccc3c21` showed an IC50 of 7.2 µM. Further, in the assay with Lemna minor [2], the result was Active. The “growth inhibition (GI)” value in the assay with Lemna minor [3] was “Active”.
In turn, `CC(C)Nc1nc(Nc2ccccc2)nc(Cl)c1-c1c(F)cccc1Cl` returned an IC50 in assay [6] of 34 µM. In addition, the result in the assay on Lemna minor [2] was inactive. In the assay on Lemna minor [3], the “growth inhibition (GI)” value is “inactive”.
In the case of `NC1=N/C(=N\NC(=O)Cc2cccc3ccccc23)c2ccccc21`, the IC50 in assay [5] turned out to be 54 µM. In addition, the outcome in the assay with Lemna minor [2] was inactive. The “growth inhibition (GI)” value with Lemna minor [3] is “inactive”.
As to `COc1ccc(-c2onc(C(F)(F)F)c2-c2ccc(Br)cc2)c(O)c1`, in the assay on Lemna minor [2], the result was Active. Besides, in the assay with Lemna minor [3], the “growth inhibition (GI)” value was “Active”. The midpoint of inhibition in assay [4], the IC50, lay at 32 µM.
`CCOc1ccc(-c2onc(C(F)(F)F)c2-c2ccc(OC)cc2)c(O)c1`: in the assay on Lemna minor [2], the outcome was Active. For the same compound, the “growth inhibition (GI)” value with Lemna minor [3] is “Active”. The IC50 in assay [4] worked out at 61 µM.
In assay [7], `Nc1ccn([C@@H]2O[C@H](CNC(=O)CCc3nc4ccccc4[nH]3)[C@@H](O)[C@H]2O)c(=O)n1` came in with an IC50 of 1.7 µM.
As for `Oc1c(Cc2ccccc2)c(Cl)nc2ncnn12`, the outcome with Lemna minor [2] was Active. Further, in the assay on Lemna minor [3], the “growth inhibition (GI)” value was “Active”.
On to `O=CN(O)CCCP(=O)(O)O` [FOSMIDOMYCIN], for which, in assay [6], the IC50 is 0.1 µM.
`O=C(O)c1ccc(-c2ccc(/C=N/Nc3nc4ccccc4s3)o2)cc1`: the outcome with Lemna minor [2] was inactive. Also, in the assay with Lemna minor [3], the “growth inhibition (GI)” value is “inactive”. The IC50 in assay [4] was found to be 33 µM.
`CCC1(C)Cc2c(sc3nc(SC)nc(O)c23)CS1` (configuration not stated) returned an IC50 in assay [6] of 59 µM. Moreover, in the assay on Lemna minor [2], the result was inactive. The “growth inhibition (GI)” value in the assay with Lemna minor [3] is “inactive”.
In assay [8], `CCOC(=O)C1=C(C)N=c2s/c(=C\c3cc(Br)c(O)c(Br)c3)c(=O)n2C1c1ccc(OC)cc1` (configuration not stated) returned an IC50 of 3.2 µM.
In assay [4], `CC1(C)C(=O)ON(Cc2ccccc2Cl)C1=O` [KETOCLOMAZONE] gave an IC50 of 0.08 µM.

As a reminder, the IC50 is the concentration that gives 50% inhibition. A high value points to weaker potency in that assay.
